These results are taken from ChEMBL document CHEMBL4393654, “Discovery and Early Clinical Development of an Inhibitor of 5-Lipoxygenase Activating Protein (AZD5718) for Treatment of Coronary Artery Disease” (J Med Chem, 2019).

SMILES strings stand for the structures.

This series is described as follows: Cardiotoxicity in rat assessed as effect on cardiac function measured up to 28 days during compound dosing. It counts as toxicity. To be noted: in vivo, 672 h.

With `Cc1cc(-c2ccc(C(=O)[C@@H]3CCCC[C@H]3C(=O)Nc3cnn4c3C(=O)NCC4)cc2)[nH]n1`, the Activity entry is reported as “Non-Toxic”.
